{"source": "patent US20040171616A9", "about": "“Polycyclic aryl and heteroaryl substituted 1,4-quinones useful for selective inhibition of the coagulation cascade” (priority 2000, published 2004)", "key": {"[1]": {"biological_target": "T1, recombinant soluble tissue factor and recombinant human factor VIIa (Homo sapiens, UniProt P08709)", "T1 construct": "purchased American Diagnostica, Greenwich Conn; (factor VIIa); host or cells: soluble TF made in house in E. coli", "T1 sequence (P08709 213-466 limits assumed)": "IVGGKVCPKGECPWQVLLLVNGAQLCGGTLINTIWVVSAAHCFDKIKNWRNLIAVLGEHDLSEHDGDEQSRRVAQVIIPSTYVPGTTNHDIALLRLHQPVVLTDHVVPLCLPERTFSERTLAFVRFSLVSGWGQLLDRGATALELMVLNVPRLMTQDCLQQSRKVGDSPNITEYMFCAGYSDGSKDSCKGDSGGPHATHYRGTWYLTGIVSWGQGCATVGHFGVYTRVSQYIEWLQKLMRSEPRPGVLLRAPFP", "T1 sequence (P08709 61-212 limits assumed)": "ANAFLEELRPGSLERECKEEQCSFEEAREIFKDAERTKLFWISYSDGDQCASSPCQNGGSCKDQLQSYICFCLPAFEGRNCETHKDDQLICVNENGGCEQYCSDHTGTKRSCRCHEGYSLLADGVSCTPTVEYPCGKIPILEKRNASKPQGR", "T1 sequence (P13726 33-251 partner limits assumed)": "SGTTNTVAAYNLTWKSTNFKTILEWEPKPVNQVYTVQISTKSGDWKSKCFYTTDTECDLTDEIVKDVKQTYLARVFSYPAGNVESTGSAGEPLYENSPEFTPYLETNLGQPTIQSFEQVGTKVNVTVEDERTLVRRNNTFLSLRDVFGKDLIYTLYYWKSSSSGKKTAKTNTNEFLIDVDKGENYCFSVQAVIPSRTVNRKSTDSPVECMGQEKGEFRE", "assay": "TF-VIIa Assay", "assay_type": "biochemical", "settings": "chromogenic substrate, 60 min at room temperature, OD 405 nm", "experimental": "In this assay 100 nM recombinant soluble tissue factor and 2 nM recombinant human factor VIIa are added to a 96-well assay plate containing 0.4 mM of the substrate, N-Methylsulfonyl-D-phe-gly-arg-p-nitroaniline and either inhibitor or buffer (5 mM CaCl2,50 mM Tris-HCl, pH 8.0, 100 mM NaCl, 0.1% BSA). The reaction, in a final volume of 100 ul is measured immediately at 405 nm to determine background absorbance. The plate is incubated at room temperature for 60 min, at which time the rate of hydrolysis of the substrate is measured by monitoring the reaction at 405 nm for the release of p-nitroaniline. Percent inhibition of TF-VIIa activity is calculated from OD405 nm value from the experimental and control sample.\nRecombinant soluble TF, consisting of amino acids 1-219 of the mature protein sequence was expressed in E. coli and purified using a Mono Q Sepharose FPLC. Recombinant human VIIa was purchased from American Diagnostica, Greenwich Conn. and chromogenic substrate N-Methylsulfonyl-D-phe-gly-arg-p-nitroaniline was prepared by American Peptide Company, Inc., Sunnyvale, Calif."}, "human factor Xa": {"biological_target": "T2, human factor Xa (Homo sapiens, UniProt P00742)", "T2 construct": "purchased Enzyme Research Laboratories, South Bend Ind", "T2 sequence (P00742 235-488 limits assumed)": "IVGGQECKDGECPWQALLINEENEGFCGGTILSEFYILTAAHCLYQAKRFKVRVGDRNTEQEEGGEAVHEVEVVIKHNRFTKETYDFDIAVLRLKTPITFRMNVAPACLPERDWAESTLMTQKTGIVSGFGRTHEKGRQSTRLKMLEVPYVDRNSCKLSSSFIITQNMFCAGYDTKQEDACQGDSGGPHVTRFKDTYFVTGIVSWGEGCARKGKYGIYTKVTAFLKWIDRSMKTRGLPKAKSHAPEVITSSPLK", "T2 sequence (P00742 41-179 limits assumed)": "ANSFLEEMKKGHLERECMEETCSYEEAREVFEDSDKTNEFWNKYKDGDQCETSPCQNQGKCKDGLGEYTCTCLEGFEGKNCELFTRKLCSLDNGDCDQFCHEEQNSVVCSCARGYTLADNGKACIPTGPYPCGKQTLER", "assay": "Xa Assay", "assay_type": "biochemical", "settings": "percent inhibition of Xa activity; test concentration not given; 60 min"}}}
{"compound": "N=C(N)c1ccc(CNC(=O)CC2=C(c3ccccc3)C(=O)C=C(NCCc3ccccc3)C2=O)cc1", "note": "[Example 2]", "values": [{"measurement": "TF-VIIA IC50", "setting": "[1]", "result": 13, "unit": "µM"}, {"measurement": "Factor Xa (cell printed as %, in the IC50 column)", "setting": "human factor Xa", "result": 13, "unit": "%"}]}
